# Values quoted from earlier work as cited in patent publication US6403361B1, “Enzymatic method for modification of recombinant polypeptides” (Restoragen, Inc., priority 1993, dated 2002).
# Where two headings read alike, the source gives them in different places.
# Assays:
# Adenosine deaminase = molecular target: T1, Adenosine deaminase (Homo sapiens, UniProt P00813); conditions: E is times ten to the negative exponent
# T1 sequence (P00813 1-363): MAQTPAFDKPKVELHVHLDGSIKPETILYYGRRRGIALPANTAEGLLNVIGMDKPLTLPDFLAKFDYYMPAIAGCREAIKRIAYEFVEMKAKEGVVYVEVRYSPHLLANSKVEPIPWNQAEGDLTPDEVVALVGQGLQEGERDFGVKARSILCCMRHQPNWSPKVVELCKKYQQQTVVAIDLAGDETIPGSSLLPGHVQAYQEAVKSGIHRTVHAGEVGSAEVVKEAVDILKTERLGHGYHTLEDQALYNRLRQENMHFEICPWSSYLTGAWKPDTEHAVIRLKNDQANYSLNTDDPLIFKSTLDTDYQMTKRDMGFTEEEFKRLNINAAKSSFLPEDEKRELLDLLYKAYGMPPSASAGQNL
# Cholesterol esterase = molecular target: T2, Cholesterol esterase (Homo sapiens, UniProt P19835); conditions: Ref. 8 (Sutton et al., BBRC, 134, 386-392 (1986)); E is times ten to the negative exponent
# T2 sequence (P19835 21-753): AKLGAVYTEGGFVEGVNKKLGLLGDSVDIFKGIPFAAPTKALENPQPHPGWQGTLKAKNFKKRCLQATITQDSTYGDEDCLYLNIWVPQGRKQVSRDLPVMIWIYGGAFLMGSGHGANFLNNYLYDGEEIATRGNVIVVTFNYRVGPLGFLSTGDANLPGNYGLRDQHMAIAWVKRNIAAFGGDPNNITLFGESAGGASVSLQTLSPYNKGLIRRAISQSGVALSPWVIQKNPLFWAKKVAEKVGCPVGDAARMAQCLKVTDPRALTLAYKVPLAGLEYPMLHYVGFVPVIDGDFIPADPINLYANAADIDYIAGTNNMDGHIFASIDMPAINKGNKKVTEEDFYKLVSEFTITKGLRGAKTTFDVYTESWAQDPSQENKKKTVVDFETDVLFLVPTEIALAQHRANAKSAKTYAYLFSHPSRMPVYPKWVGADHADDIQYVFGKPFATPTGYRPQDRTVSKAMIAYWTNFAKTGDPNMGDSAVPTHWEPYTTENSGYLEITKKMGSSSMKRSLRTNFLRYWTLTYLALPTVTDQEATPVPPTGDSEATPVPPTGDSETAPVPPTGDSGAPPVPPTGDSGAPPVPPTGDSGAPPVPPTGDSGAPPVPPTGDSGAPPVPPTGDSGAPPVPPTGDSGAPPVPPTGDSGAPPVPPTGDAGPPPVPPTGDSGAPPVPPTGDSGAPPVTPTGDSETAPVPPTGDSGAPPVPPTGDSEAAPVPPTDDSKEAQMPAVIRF
compound,measurement,setting,value
OC[C@H]1O[C@@H](n2cnc3c2N=CNC[C@H]3O)[C@H](O)[C@@H]1O [Coformycin],Kd,"Adenosine deaminase; Ref. 1 (Cha et al., Biochemical Pharm., 24, 2187-2197)",< 0.12 nM
CCCCCCC(C(C)O)n1cnc2c(N)ncnc21 (stereo not drawn) [erythro-9-(2-hydroxy-3 nonyl) adenine],Kd,"Adenosine deaminase; Ref. 2 (Agarwal et al., Biochemical Pharm., 26, 354-367 (1977))",1.6 nM
Borinic acid,Kd,Cholesterol esterase,0.1 nM
